Usually IC50 stands for the point on the concentration scale where inhibition reaches its midpoint.

Experiment [1] has as its target T1, Purified recombinant ADAMTS-7 (rat prodomain/human catalytic domain, SEQ ID No. 01 or 02) (Homo sapiens, UniProt Q9UKP4).
T1 construct: rat ADAMTS-7 signal peptide + prodomain (rat 1-217, Q1EHB3) (N); 2xStrep tag (C); 6xHis tag (C); made in house; host or cells: Expi293 cells
T1 sequence (Q9UKP4 237-537): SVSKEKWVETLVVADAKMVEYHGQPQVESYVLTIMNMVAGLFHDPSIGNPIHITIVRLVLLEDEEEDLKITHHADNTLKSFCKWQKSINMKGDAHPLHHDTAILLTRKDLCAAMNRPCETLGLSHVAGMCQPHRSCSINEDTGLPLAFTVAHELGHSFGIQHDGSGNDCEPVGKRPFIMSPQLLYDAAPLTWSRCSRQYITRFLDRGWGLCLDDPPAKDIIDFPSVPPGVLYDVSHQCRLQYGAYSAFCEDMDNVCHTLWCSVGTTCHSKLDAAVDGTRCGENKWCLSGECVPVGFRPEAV
Description: Assay for ADAMTS-7 enzymatic activity (FRET substrate cleavage). The format is biochemical. Particulars: FRET substrate SEQ ID No. 11, 120 min at 32° C.; read-out: ADAMTS7-IC50. An outline of the steps:
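IC50 values were fitted from percent inhibition across test-compound concentrations. Fluorescence gain (ex 485, em 520 nm) reports cleavage of a thrombospondin-1 (275-289) FRET peptide with QXL520 quencher, after 120 min at 32 °C. The enzyme, about 20 nM, was in HEPES pH 8.0 buffer with NaCl, CaCl2, ZnCl2 and Brij.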

Experiment [2] concerns the target T2, ADAMTS4 (Homo sapiens, UniProt O75173).
T2 construct: purchased R&D 4307-AD
T2 sequence (O75173 213-685 limits assumed): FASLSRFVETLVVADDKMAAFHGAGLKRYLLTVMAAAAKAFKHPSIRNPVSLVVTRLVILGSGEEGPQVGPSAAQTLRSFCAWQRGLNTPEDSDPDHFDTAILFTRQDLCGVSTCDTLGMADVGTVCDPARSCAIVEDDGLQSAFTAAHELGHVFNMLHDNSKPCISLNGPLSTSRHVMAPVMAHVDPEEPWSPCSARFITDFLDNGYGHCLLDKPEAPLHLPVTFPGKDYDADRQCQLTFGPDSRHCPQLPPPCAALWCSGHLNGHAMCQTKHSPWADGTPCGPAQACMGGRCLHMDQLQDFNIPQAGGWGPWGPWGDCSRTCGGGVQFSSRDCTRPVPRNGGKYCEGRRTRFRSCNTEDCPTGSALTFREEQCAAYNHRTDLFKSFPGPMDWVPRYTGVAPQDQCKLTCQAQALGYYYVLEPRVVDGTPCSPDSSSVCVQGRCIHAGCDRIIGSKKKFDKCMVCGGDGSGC
Description: Selectivity assay for ADAMTS-7 modulators (FRET), ADAMTS4. It counts as biochemical. Particulars: 50 nM enzyme (R&D 4307-AD), 1 μM Dabcyl/Edans FRET substrate, 120 min at 32° C. Summed up:
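Enzyme in 50 mM Tris pH 7.5, 150 mM NaCl, 10 mM CaCl2, 0.05% Brij, preincubated with compound in DMSO; reaction started with FRET substrate. Fluorescence increase read after 120 min at 32° C; IC50 from percent inhibition versus compound concentration.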

Regarding `O=C1NC(=O)[C@](CNC(=O)c2cnn(-c3ccc(F)c(Cl)c3)n2)(C2CC2)N1` [Example 29, 2-(3-chloro-4-fluorophenyl)-N-{[(4R)-4-cyclopropyl-2,5-dioxoimidazolidin-4-yl]methyl}-2H-1,2,3-triazole-4-carboxamide], the IC50 in experiment [1] was 5 nM; in experiment [2] it was 250 nM.
For `O=C1NC(=O)[C@](CNC(=O)c2cnn(-c3ccc(Cl)c(F)c3)n2)(C2CC2)N1` [Example 30, 2-(4-chloro-3-fluorophenyl)-N-{[(4R)-4-cyclopropyl-2,5-dioxoimidazolidin-4-yl]methyl}-2H-1,2,3-triazole-4-carboxamide], in that order: 12 nM and 500 nM.
In the case of `O=C1NC(=O)[C@](CNC(=O)c2cnn(-c3ccc(F)cc3F)n2)(C2CC2)N1` [Example 31, N-{[(4R)-4-cyclopropyl-2,5-dioxoimidazolidin-4-yl]methyl}-2-(2,4-difluorophenyl)-2H-1,2,3-triazole-4-carboxamide], the 50% inhibitory concentration (IC50) in experiment [1] stood at 41 nM; in experiment [2], 4250 nM.
Taken in the same sequence, the figures for `O=C1NC(=O)[C@](CNC(=O)c2cnn(-c3ccc(Cl)c(Cl)c3)n2)(C2CC2)N1` [Example 32, N-{[(4R)-4-cyclopropyl-2,5-dioxoimidazolidin-4-yl]methyl}-2-(3,4-dichlorophenyl)-2H-1,2,3-triazole-4-carboxamide] were 35 nM and 910 nM.
As to `O=C1NC(=O)[C@](CNC(=O)c2cnn(-c3ccc(Br)cc3)n2)(C2CC2)N1` [Example 33, 2-(4-bromophenyl)-N-{[(4R)-4-cyclopropyl-2,5-dioxoimidazolidin-4-yl]methyl}-2H-1,2,3-triazole-4-carboxamide], the figures for the IC50 in experiment [1] and in experiment [2] were 58 nM and 1400 nM, respectively.
Turning to `O=C1NC(=O)[C@](CNC(=O)c2cnn(-c3ccc(F)cc3)n2)(C2CC2)N1` [Example 34, N-{[(4R)-4-cyclopropyl-2,5-dioxoimidazolidin-4-yl]methyl}-2-(4-fluorophenyl)-2H-1,2,3-triazole-4-carboxamide], the concentration for half-maximal inhibition (IC50) in experiment [1] was determined as 26 nM; in experiment [2] it was 1420 nM.
For `O=C1NC(=O)[C@](CNC(=O)c2cnn(-c3cccc(F)c3F)n2)(C2CC2)N1` [Example 35, N-{[(4R)-4-cyclopropyl-2,5-dioxoimidazolidin-4-yl]methyl}-2-(2,3-difluorophenyl)-2H-1,2,3-triazole-4-carboxamide], the IC50 is 74 nM in experiment [1] and 3100 nM in experiment [2].
Taken in the same sequence, the figures for `O=C1NC(=O)[C@](CNC(=O)c2cnn(-c3cc(F)ccc3F)n2)(C2CC2)N1` [Example 36, N-{[(4R)-4-cyclopropyl-2,5-dioxoimidazolidin-4-yl]methyl}-2-(2,5-difluorophenyl)-2H-1,2,3-triazole-4-carboxamide] were 110 nM and 5500 nM.
In the case of `O=C1NC(=O)[C@](CNC(=O)c2cnn(-c3ccccc3F)n2)(C2CC2)N1` [Example 37, N-{[(4R)-4-cyclopropyl-2,5-dioxoimidazolidin-4-yl]methyl}-2-(2-fluorophenyl)-2H-1,2,3-triazole-4-carboxamide], the IC50 in experiment [1] is 180 nM; in experiment [2], 7600 nM.
For the compound `O=C1NC(=O)C(CNC(=O)c2cnn(-c3ccccc3)n2)(c2ccccn2)N1` (stereo not drawn) [Example 38, ent-N-{[2,5-dioxo-4-(pyridin-2-yl)imidazolidin-4-yl]methyl}-2-phenyl-2H-1,2,3-triazole-4-carboxamide], the figures for the IC50 in experiment [1] and in experiment [2] were 10 nM and 2800 nM, respectively.
Taken in the same sequence, the figures for `C[C@H](NC(=O)c1cnn(-c2ccccc2)n1)C1(C2CC2)NC(=O)NC1=O` (stereo partly drawn) [Example 40, ent-N-((1S)-1-(4-Cyclopropyl-2,5-dioxoimidazolidin-4-yl)ethyl)-2-phenyl-2H-1,2,3-triazole-4-carboxamide] were 980 nM and 25000 nM.
Consider `O=C1NC(=O)[C@](CNC(=O)c2coc(-c3ccc(F)cc3)n2)(C2CC2)N1` [Example 41, N-{[(4R)-4-cyclopropyl-2,5-dioxoimidazolidin-4-yl]methyl}-2-(4-fluorophenyl)-1,3-oxazole-4-carboxamide], for which the 50% inhibitory concentration (IC50) in experiment [1] stood at 55 nM; in experiment [2], 1700 nM.
Regarding `O=C1NC(=O)[C@](CNC(=O)c2nnc(-c3ccc(F)cc3)o2)(C2CC2)N1` [Example 42, N-{[(4R)-4-cyclopropyl-2,5-dioxoimidazolidin-4-yl]methyl}-5-(4-fluorophenyl)-1,3,4-oxadiazole-2-carboxamide], the half-maximal inhibitory concentration (IC50) in experiment [1] is 350 nM; in experiment [2], 12000 nM.
On to `CC1(C)CC1C1(CNC(=O)c2cnn(-c3ccccc3)n2)NC(=O)NC1=O` (stereo not drawn) [Example 43, ent-N-{[4-(2,2-dimethylcyclopropyl)-2,5-dioxoimidazolidin-4-yl]methyl}-2-phenyl-2H-1,2,3-triazole-4-carboxamide], for which the values for the 50% inhibitory concentration (IC50) in experiment [1] and in experiment [2] were 320 nM and 13000 nM, respectively.
Taken in the same sequence, the figures for `CC(C)(C)CC1(CNC(=O)c2cnn(-c3ccccc3)n2)NC(=O)NC1=O` (stereo not drawn) [Example 44, ent-N-{[4-(2,2-dimethylpropyl)-2,5-dioxoimidazolidin-4-yl]methyl}-2-phenyl-2H-1,2,3-triazole-4-carboxamide] were 250 nM and 5000 nM.
Consider `O=C1NC(=O)[C@](CNC(=O)c2cnn(-c3ccccc3)n2)(C2CC2)N1` [Example 45, N-{[(4R)-4-cyclopropyl-2,5-dioxoimidazolidin-4-yl]methyl}-2-phenyl-2H-1,2,3-triazole-4-carboxamide], for which the figures for the IC50 in experiment [1] and in experiment [2] were 69 nM and 1450 nM, respectively.
Taken in the same sequence, the figures for `O=C1NC(=O)[C@](CNC(=O)c2cnn(-c3ccccn3)n2)(C2CC2)N1` [Example 47, N-{[(4R)-4-cyclopropyl-2,5-dioxoimidazolidin-4-yl]methyl}-2-(pyridin-2-yl)-2H-1,2,3-triazole-4-carboxamide] were 98 nM and 7650 nM.
As to `O=C1NC(=O)[C@](CNC(=O)c2cnn(-c3ccccc3)c2)(C2CC2)N1` [Example 56, N-{[(4R)-4-cyclopropyl-2,5-dioxoimidazolidin-4-yl]methyl}-1-phenyl-1H-pyrazole-4-carboxamide], the IC50 in experiment [1] amounted to 129 nM; in experiment [2], 1800 nM.
Regarding `CC(CO)C1(CNC(=O)c2cnn(-c3ccccc3)n2)NC(=O)NC1=O` (stereo not drawn) [Example 57], the 50% inhibitory concentration (IC50) was 190 nM in experiment [1] and 17000 nM in experiment [2].
For `O=C1NC(=O)[C@](CNC(=O)c2cnc(-c3ccccc3)o2)(C2CC2)N1` [Example 59, N-{[(4R)-4-cyclopropyl-2,5-dioxoimidazolidin-4-yl]methyl}-2-phenyl-1,3-oxazole-5-carboxamide], the 50% inhibitory concentration (IC50) is 550 nM in experiment [1] and 11300 nM in experiment [2].
Taken in the same sequence, the figures for `O=C1NC(=O)[C@](CNC(=O)c2cnn(-c3ccccn3)n2)(C2CC2)N1` [Example 60, N-{[(4R)-4-cyclopropyl-2,5-dioxoimidazolidin-4-yl]methyl}-2-(pyridin-2-yl)-2H-1,2,3-triazole-4-carboxamide] were 259 nM and 8400 nM.
`CC(C)C1(CNC(=O)c2cnn(-c3ccccc3)n2)NC(=O)NC1=O` (stereo not drawn) [Example 70, ent-N-[(2,5-dioxo-4-(propan-2-yl)imidazolidin-4-yl)methyl]-2-phenyl-2H-1,2,3-triazole-4-carboxamide]: the IC50 was 76 nM in experiment [1] and 10000 nM in experiment [2].
On to `CC(C)(C)C1(CNC(=O)c2cnn(-c3ccccc3)n2)NC(=O)NC1=O` (stereo not drawn) [Example 71, ent-N-[(4-tert-butyl-2,5-dioxoimidazolidin-4-yl)methyl]-2-phenyl-2H-1,2,3-triazole-4-carboxamide], for which the half-maximal inhibitory concentration (IC50) worked out at 47 nM in experiment [1] and 13100 nM in experiment [2].
Turning to `O=C1NC(=O)C(CNC(=O)c2cnn(-c3ccc(F)cc3)n2)(CC2CC2)N1` (stereo not drawn) [Example 72, ent-N-[(4-(cyclopropylmethyl)-2,5-dioxoimidazolidin-4-yl]methyl]-2-(4-fluorophenyl)-2H-1,2,3-triazole-4-carboxamide], the IC50 was determined as 130 nM in experiment [1] and 6200 nM in experiment [2].

Values taken from patent US20230027985A1, “SUBSTITUTED HYDANTOINAMIDES AS ADAMTS7 ANTAGONISTS” (Bayer Aktiengesellschaft, priority 2019, published 2023).
